Experimental data: patent EP0383941B1, “ULTRAVIOLET ABSORBING COSMETIC” (priority 1988, dated 1990)
≈ marks a conversion by molar mass, not a printed value. Blank lines part the entries; values can stand above or below the compound they belong to.

Experiments:
[1] = Measurement of water resistance (hot water treatment of aqueous suspension, extinction coefficient and TG-DTA); format: physicochemical; settings: for Water resisting stability: 10 % by weight aqueous suspension, 80°C for 2 hours, change of molecular extinction coefficient in λmax; for Change of TG-DTA: before and after hot water treatment (80°C, 2 hours)
Method: Fifty milliliters each of aqueous suspensions containing 10 % by weight of a cyclic imino ester and a comparative sample, respectively was prepared, and allowed to stand in a constant temperature bath of 80°C for 2 hours.
Then, 50 ml of isopropyl alcohol was added thereto, and the water and the solvent were removed using a rotary evaporator, and the residue was taken out.
This residue was measured for molecular extinction coefficient in λmax according to a similar manner to Example 1, and its change was used as a measure of water resistance. [formula] Further, the samples before and after hot water treatment were measured for TG-DTA, and its change was examined.

[2] = Measurement of ultraviolet ray-absorbing ability (spectrophotometer); format: physicochemical; settings: 1,1,2,2-tetrachloroethane, 5x10⁻⁴ g/100 ml, optical path length 1 cm; for E 1%, 1cm: at λmax
Method: There were measured ultraviolet ray-absorbing ability of the cyclic imino esters used in accordance with the invention and a commercially available known ultraviolet absorber (4-t-butyl-4'-methoxy-dibenzoylmethane).
The measurement was carried out using 1,1,2,2-tetrachloroethane as a solvent and Hitachi 330 type spectrophotometer under the conditions of an ultraviolet absorber concentration of 5x10⁻⁴ g/100 ml and an optical path length of 1 cm.

[3] = Measurement of solubility in water, alcohols and oily cosmetic bases; format: physicochemical; settings: 15°C
skin [4] = assay: Primary irritation to the skin; format: in vivo, white rabbits; settings: for Formation of erythema or eschar: animals judged +: grade + (Well defined erythema)
Method: This experiment was carried out according to the following method. • 1) Eight white rabbits (weighing 2.0 to 3.0 kg) whose fur on the back was cut are grouped into two groups each consisting of 4 animals. Animals of one group (blank) were fixed as they were in braces and those of the other group were fixed in braces after excoriation at the site to be tested. • 2) Vaseline base containing 25 % by weight of a test substance was applied onto a lint cloth, and the resulting lint cloth was stuck on the surface of skin. • 3) Whole body of the rabbit was wrapped with moisture-proof rubber for dental use to prevent movement of the stuck lint cloth and at the same time evaporation of volatile substance. • 4) Twenty-four hours thereafter the lint cloth was removed and the test site was observed. Second and third observations are made 48 and 72 hours thereafter, respectively. The average of evaluation after 24 and 72 hours was calculated as a final evaluation point. • 5) Evaluation was made by independently judging formation of erythema and eschar, and edema, specifically according to the following criteria.

Microorganisms = assay: Mutagenicity test using microorganisms; format: cell-based; settings: test on mutagenicity using microorganisms
Method: This experiment was carried out based on "About Test on Mutagenicity Using Microorganisms", a notification of the Director of the Standard Bureau, the Ministry of Labor, Japan dated May 18, 1985.

skin [5] = assay: Allergic contact dermatitis test (Guinea Pig Maximization Test); design: species or system white female guinea pigs; settings: in vivo
Method: Method: This experiment was carried out as follows based on "Guinea Pig Maximization Test" (Magnusson, B. & Klingman, A. M: Usefulness of guinea pig tests for detection of contact sensitizers, In Advances in Modern Toxicology. Vol 4, pp 551-560 Hemisphere Publishing Co., Washington & London, 1977) 1) The fur on the scapula of white female guinea pigs weighing 300 to 500 g was cut in an area of 4 x 6 cm. 2) Each sample was intradermally injected into a guinea pig at the positions (1), (2) and (3) shown in Figure 1 with • (1) 0.1 ml of Freund's complete adjuvant alone; • (2) 0.1 ml of test substance alone; or • (3) sample w/o emulsified with 0.1 ml of Freund's complete adjuvant 3) The fur at the sites was cut one week after the intradermal injection, and a […] test substance, 10 % sodium lauryl sulfate (vaseline base), was applied thereon. 4) Vaseline containing 25 % by weight of the test substance was spread on a filter paper of 2 x 4 cm and occlusive pasting was conducted for 48 hours. 5) The fur at the side of the body of a guinea pig shown at (4) in Figure 1 was cut in an area of 5 x 5 cm two weeks after the occlusive pasting. 6) The test substance was applied onto a filter paper of 2 x 2 cm, and occlusive pasting was conducted for 24 hours. 7) Measurement was carried out according to the following criterion: […]

skin [6] = assay: Contact photosensitization (Adjuvant-Strip method); format: in vivo, Hartley white guinea pigs; settings: for Contact photosensitization (result in words): Adjuvant-Strip method
Method: (1) Hartley white guinea pigs weighing 370 to 420 g were used. (2) The fur at the cervical part of guinea pigs was cut by an eletric hair clipper, and the part was further shaved with an electric razor. (3) A section of 2 x 4 cm was set at the cervical part, and 0.1 ml portions of Freund's complete adjuvant w/o emulsified with sterilized distilled water were intradermally injected at the four corners. (4) The skin of the section of 2 x 4 cm was subjected to stripping with cellophane tape to cause light erythema. […] (6) After the application, 6 lamps in total, namely 3 sunlamps (Toshiba FL-40SE30) and 3 black lights (Toshiba FL-40SBLB) were arranged in parallel, 70 minutes irradiation was carried out at a distance of 10 cm from the light sources. Total energy of the irradiation at this time was 12.0 J/cm². (7) The procedures (4), (5) and (6) were repeated 5 times every other day. […] (9) 24 Hours after the epilation, 4 sections each of 1.5 cm x 1.5 cm were set in two rows using the medium line as a symmetry axis. (10) This site was coated with the test substance and irradiated for 70 minutes at a distance of 10 cm from 6 black lights. […] (11) Judgement was made 24 and 48 hours after the irradiation according to the following criterion: [Judgement criterion]

[7] = Vaseline base containing 25 % by weight, 4 rabbits
[8] = grade +++ (Severe erythema to slight formation of eschar), Vaseline base containing 25 % by weight, 4 rabbits
[9] = 3 = Erythema in middle to heavy degree, guinea pigs

Structure (SMILES): O=c1oc(-c2ccc3cc(-c4nc5ccccc5c(=O)o4)ccc3c2)nc2ccccc12
Water resisting stability [1]: 96.7%

Structure (SMILES): O=c1oc(-c2ccc(-c3ccc(-c4nc5ccccc5c(=O)o4)cc3)cc2)nc2ccccc12
λmax (maximum absorption wavelength) [2]: 348 nm
λs (absorption intiation wavelength) [2]: 395 nm
E 1%, 1cm [2]: 1300
Water resisting stability [1]: 97.6%

Water resisting stability [1]: 52.0%
Structure (SMILES): COc1ccc(C(=O)CC(=O)c2ccccc2C(=O)O)cc1 [4-methoxy-2'-sodium carboxylate-dibenzoylmethane, reference compound]

λmax (maximum absorption wavelength) [2]: 360 nm
λs (absorption intiation wavelength) [2]: 400 nm
E 1%, 1cm [2]: 1040
solubility ([3]; Water): 0.0002 mg/mL (≈ 0.000644 mM)
solubility ([3]; organic solvent or mixture, Castor oil): 96 mg/mL (≈ 309 mM)
solubility ([3]; organic solvent or mixture, Ethanol): 16 mg/mL (≈ 51.5 mM)
solubility ([3]; organic solvent or mixture, Glycerin): 2.5 mg/mL (≈ 8.05 mM)
solubility ([3]; organic solvent or mixture, Isopropyl myristate): 53 mg/mL (≈ 171 mM)
solubility ([3]; organic solvent or mixture, Light liquid paraffin): 8.5 mg/mL (≈ 27.4 mM)
solubility ([3]; organic solvent or mixture, Olive oil): 19 mg/mL (≈ 61.2 mM)
Water resisting stability [1]: 89.4%
Change of TG-DTA [1]: genera-tion of subpeak
Structure (SMILES): COc1ccc(C(=O)CC(=O)c2ccc(C(C)(C)C)cc2)cc1 [4-t-butyl-4'-methoxydibenzoylmethane, 4-t-butyl-4'-methoxy-dibenzoylmethane]

Structure (SMILES): O=c1oc(-c2ccc(-c3nc4ccccc4c(=O)o3)cc2)nc2ccccc12 [A, 2,2'-p-phenylenebis(3,1-benzoxazin-4-one)]
λmax (maximum absorption wavelength) [2]: 350 nm
λs (absorption intiation wavelength) [2]: 385 nm
E 1%, 1cm [2]: 1270
Water resisting stability [1]: 96.9%
Change of TG-DTA [1]: no change
Formation of edema (animals) (skin [4]; rabbit, in vivo): 0/4
Formation of erythema or eschar: animals judged ++ (skin [4]; rabbit, in vivo): 0/4
Formation of erythema or eschar: animals judged +++ (skin [4]; rabbit, in vivo): 0/4
Formation of erythema or eschar: animals judged - (skin [4]; rabbit, in vivo): 4/4
Formation of erythema or eschar: animals judged ± (skin [4]; rabbit, in vivo): 0/4
Mutagenicity (Microorganisms): No mutagenicity was observed
Judgement 0 (animals) (skin [5]): 4/4
Judgement 1 (animals) (skin [5]): 0/4
Judgement 2 (animals) (skin [5]): 0/4
Contact photosensitization (result in words) (skin [6]; guinea pigs): not observed at all
Formation of erythema, judgement 0 (animals) (skin [6]; guinea pig, in vivo): 10/10
Formation of erythema, judgement 1 (animals) (skin [6]; guinea pig, in vivo): 0/10
Formation of erythema, judgement 2 (animals) (skin [6]; guinea pig, in vivo): 0/10
Formation of erythema, judgement 3 (animals) (skin [6]; guinea pig, in vivo): 0/10

Structure (SMILES): O=c1oc(-c2ccc(-c3ccc(-c4nc5ccccc5c(=O)o4)cc3)cc2)nc2ccccc12 [B, 2,2'-(4,4'-diphenylene)bis(3,1-benzoxazin-4-one)]
Formation of edema (animals) (skin [4]; [7]): 0/4
Formation of erythema or eschar: animals judged + (skin [4]; [7]): Same as left
Formation of erythema or eschar: animals judged +++ (skin [4]; [8]): Same as left
Mutagenicity (Microorganisms): No mutagenicity was observed
Formation of erythema, judgement 3 (animals) (skin [6]; [9]): Same as left
Contact photosensitization (result in words) (skin [6]; guinea pigs): not observed at all

Structure (SMILES): O=c1oc(-c2ccc3cc(-c4nc5ccccc5c(=O)o4)ccc3c2)nc2ccccc12 [C, 2,2'-(2,6-naphthylene)bis(3,1-benzoxazin-4-one)]
λmax (maximum absorption wavelength) [2]: 354 nm
λs (absorption intiation wavelength) [2]: 400 nm
E 1%, 1cm [2]: 1070
Formation of edema (animals) (skin [4]; [7]): 0/4
Formation of erythema or eschar: animals judged + (skin [4]; [7]): Same as left
Formation of erythema or eschar: animals judged +++ (skin [4]; [8]): Same as left
Mutagenicity (Microorganisms): No mutagenicity was observed
Formation of erythema, judgement 0 (animals) (skin [6]; 0 = No erythema, 24 and 48 hours after irradiation, 10.2 J/cm², guinea pigs): 9/10
Formation of erythema, judgement 1 (animals) (skin [6]; 1 = Erythema in very light degree, guinea pigs): 1/10
Formation of erythema, judgement 3 (animals) (skin [6]; [9]): Same as left
Contact photosensitization (result in words) (skin [6]; guinea pigs): Very slight contact photosensitization was observed
